Values quoted from earlier work, collected in US20250381182A1, “ALDH-2 INHIBITOR COMPOUNDS AND METHODS OF USE” (Amygdala Neurosciences, Inc., priority 2024, published 2025).

Details: O'Malley et al. 2021, Phase 2 study of ANS-6637; cited from earlier work

In the case of `O=C(NCc1ccc(-c2cc[nH]c(=O)c2)cc1)c1c(Cl)cccc1Cl` [2,6-dichloro-N-[4-(2-oxo-1,2-dihydro-pyridin-4-yl)-benzyl]-benzamide], the hepatotoxicity in humans is given as “high levels of hepatotoxicity”.
